We go through six compounds from US10919862B2, “Fused imidazoles as mIDH1 inhibitors” (BAYER PHARMA AKTIENGESELLSCHAFT, priority 2015, dated 2021).

In one assay the target is IDH1 R132H enzyme (Homo sapiens (Human), UniProt O75874, R132H). Put plainly: Mutant IDH1 R132H biochemical assay. The settings on record: NADPH consumption, luminescent readout; 1.5 nM enzyme, 1 μM NADPH, 250 μM α-KG, 30 minutes, 32° C. The method, then:
Mutant IDH1 R132H Biochemical Assay
mIDH1 catalyzes the NADPH-dependent reduction of alpha-ketoglutarate (α-KG) to (2R)-2-hydroxyglutarate (2-HG). NADPH consumption was measured by luminescent readout.
The biochemical reactions were performed at 32° C. in 384-well plates using a reaction volume of 41 μL and the following assay buffer conditions: 50 mM Tris pH 7.5, 100 mM NaCl, 20 mM MgCl2, 0.05% BSA, 0.01% Brij, 1 μM NADPH, and 250 μM α-KG. The IDH1 R132H enzyme was used in a final concentration of 1.5 nM. Test compounds were used in a concentration range between 0.002 and 10 μM. The final DMSO concentration was 2.4%.
The reaction was incubated for 30 minutes, then 40 μL of detection mix (0.75 μg/ml Luciferase, 0.02 U/ml Oxidoreductase, 4 μg/mL FMN, 2 μL/ml decanal/ethanol, 50 mM Tris pH 7.5, 0.5% Glycerin, 0.01% Tween-20, 0.05% BSA) was added. Luminescence was measured on a luminescent reader (10 seconds measuring time, 1 second integration period, 30% sensitivity). The decrease in luminescence is proportional to mIDH1 activity. IC50 values are determined by interpolation from plots of relative luminescence versus inhibitor concentration.

Another assay deals with LN229 R132H cells. Kind of assay: Mutant IDH1 cellular assay. Format: cell-based. The following applies: Homo sapiens, LN-229; 2-HG levels in medium of LN229 R132H cells, 24 hours, fluorescence readout. The method, then: Mutant IDH1 Cellular Assay
Levels of (2R)-2-hydroxyglutarate (2HG) were measured in medium of a cell line with overexpression of mutated isocitrate dehydrogenase (mIDH) protein. mIDH catalyzes the NADPH-dependent reduction of alpha-ketoglutarate to 2-HG. Cells (LN229 R132H, Mohrenz et al., Apoptosis (2013) 18:1416-1425) were grown in DMEM containing 10% FCS. They were harvested by trypsin and seeded into 96-well plates. Cells were incubated overnight at 37° C. in 5% CO2. The next day test compounds were added to each cell well. The final concentration of DMSO was 0.1% and DMSO controls were included. The plates were then placed in an incubator for 24 hours.
2-HG was measured according to Balss et al. (Acta Neuropathol (2012) 124: 883-891). Briefly, perchloric acid was added to each well and the plates were centrifuged. Aliquots are removed and incubated with hydroxyglutarate dehydrogenase (HGDH), diaphorase, NAD+, and resazurin. The conversion of resazurin to resorufin was detected by fluorescence spectroscopy at Ex 540 nm Em 600 nm. The increase in fluorescence is proportional to 2-HG production. IC50 values are determined by interpolation from plots of relative fluorescence vs inhibitor concentration.

IDH1 R132H enzyme, sequence (O75874 whole entry R132H): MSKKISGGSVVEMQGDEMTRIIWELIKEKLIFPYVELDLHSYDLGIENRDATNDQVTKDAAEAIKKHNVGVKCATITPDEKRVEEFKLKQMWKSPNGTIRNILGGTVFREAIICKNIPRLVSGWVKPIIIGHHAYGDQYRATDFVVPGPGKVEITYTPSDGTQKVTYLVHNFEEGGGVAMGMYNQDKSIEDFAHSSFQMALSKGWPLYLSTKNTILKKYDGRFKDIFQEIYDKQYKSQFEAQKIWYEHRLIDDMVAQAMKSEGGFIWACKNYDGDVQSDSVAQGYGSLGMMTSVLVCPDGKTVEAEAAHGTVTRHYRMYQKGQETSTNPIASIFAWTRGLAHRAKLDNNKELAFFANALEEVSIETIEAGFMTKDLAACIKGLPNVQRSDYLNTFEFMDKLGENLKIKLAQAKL

On to `C[C@H]1C[C@@H](n2c(Nc3ccc(OC(F)(F)F)cc3)nc3cc(C(=O)O)ccc32)CC(C)(CO)C1` (stereo partly drawn) [Example 2-1, 1-[(1R,5R)-3-(hydroxymethyl)-3,5-dimethylcyclohexyl]-2-{[4-(trifluoromethoxy)-phenyl]amino}-1H-benzimidazole-5-carboxylic acid], for which the concentration for half-maximal inhibition (IC50) at IDH1 R132H enzyme amounted to 500 nM.
Same read-out and setting: to `C[C@H]1C[C@@H](n2c(Nc3ccc(OC(F)(F)F)cc3)nc3cc(C(=O)O)ccc32)CC(C)(C)[C@@H]1O` [Example 2-2, 1-[(1R,4R,5S)-4-hydroxy-3,3,5-trimethylcyclohexyl]-2-{[4-(trifluoromethoxy)-phenyl]amino}-1H-benzimidazole-5-carboxylic acid] belongs 4800 nM.
As to `CC1(C)C[C@@H](CO)C[C@@H](n2c(Nc3ccc(OC(F)(F)F)cc3)nc3cc(CCC(=O)O)ccc32)C1` [Example 2-3, 3-(1-[(1R,5R)-5-(hydroxymethyl)-3,3-dimethylcyclohexyl]-2-{[4-(trifluoromethoxy)-phenyl]amino}-1H-benzimidazol-5-yl)propanoic acid], the figures for the half-inhibitory concentration (IC50) in the assay with LN229 R132H cells and against IDH1 R132H enzyme were 1200 nM and 180 nM, respectively.
For `C[C@H]1C[C@@H](n2c(Nc3ccc(OC(F)(F)F)cc3)nc3cc(CCC(=O)O)ccc32)CC(C)(CO)C1` (stereo partly drawn) [Example 2-4, 3-(1-[(1R,5R)-3-(hydroxymethyl)-3,5-dimethylcyclohexyl]-2-{[4-(trifluoromethoxy)-phenyl]amino}-1H-benzimidazol-5-yl)propanoic acid], in that order: 2200 nM and 270 nM.
With `C[C@H]1C[C@@H](n2c(Nc3ccc(OC(F)(F)F)cc3)nc3cc(CCC(=O)O)ccc32)CC(C)(C)[C@@H]1O` [Example 2-5, 3-(1-[(1R,4R,5S)-4-hydroxy-3,35-trimethylcyclohexyl]-2-{[4-(trifluoromethoxy)-phenyl]amino}-1H-benzimidazol-5-yl)propanoic acid], the half-maximal inhibitory concentration (IC50) against IDH1 R132H enzyme turned out to be 4100 nM.
`CC1(C)C[C@@H](n2c(Nc3ccc(OC(F)(F)F)cc3)nc3cnccc32)C[C@@](C)(CO)C1` [Example 2-6, [(1 S,5R)-1,3,3-trimethyl-5-(2-{[4-(trifluoromethoxy)phenyl]amino}-1H-imidazo-[4,5-c]pyridin-1-yl)cyclohexyl]methanol]: the results for the 50% inhibitory concentration (IC50) in the assay with LN229 R132H cells and at IDH1 R132H enzyme were 1600 nM and 30 nM, respectively.

For orientation: IC50 means the concentration that gives 50% inhibition.
